Assay results as given in ChEMBL document CHEMBL4828719, “H2dpa derivatives containing pentadentate ligands: An acyclic adjuvant potentiates meropenem activity in vitro and in vivo against metallo-β-lactamase-producing Enterobacterales” (Eur J Med Chem, 2021).
In brackets after ≈: the same amount, converted by molar mass. Activity calls are given as the source filed them. The rule behind the calls is not given here.

Legend:
[1] = Acute toxicity in BALB/cmouse assessed as change in hematocrit level at 50 mg/kg, ip administered as single dose measured after 24 hrs; assay type: organism-based, BALB/c; settings: mouse, in vivo
Escherichia coli [2] = assay: Antibiotic adjuvant activity against NDM-1 producing Escherichia coli DH5alpha assessed as potentiation of meropenem-induced antibacterial activity incubated for 16 to 20 hrs by agar disc diffusion assay; assay type: functional, organism-based; settings: DH5[alpha], time 16-20 hrs
Klebsiella pneumoniae [3] = assay: Antibiotic adjuvant activity against meropenem-treated NDM-producing carbapenem resistant Klebsiella pneumoniae infected in BALB/c mouse sepsis model assessed as mouse rescue at 10 mg/kg, ip in the presence of meropenem measured after 48 hrs; assay type: functional
[4] = Acute toxicity in BALB/c mouse assessed as change in platelet count at 50 mg/kg, ip administered as single dose measured after 24 hrs; assay type: organism-based; settings: in vivo
[5] = Zinc chelation-dependent inhibition of VIM-2 (unknown origin) expressed in Escherichia coli BL21 (DE3) using nitrocefin as substrate preincubated with enzyme for 5 to 10 mins followed by substrate addition
[6] = Acute toxicity in BALB/c mouse assessed as change in mean corpuscular volume at 50 mg/kg, ip administered as single dose measured after 24 hrs; assay type: organism-based; settings: in vivo
[7] = Acute toxicity in BALB/c mouse assessed as change in hemoglobin level at 50 mg/kg, ip administered as single dose measured after 24 hrs; assay type: organism-based; settings: in vivo
[8] = Zinc chelation-dependent inhibition of IMP-1 (unknown origin) expressed in Escherichia coli DH5 alpha using imipenem as substrate preincubated with enzyme for 5 mins followed by substrate addition in the presence of zinc sulfate
Klebsiella pneumoniae [9] = assay: Antibiotic adjuvant activity against meropenem-treated NDM-producing carbapenem resistant Klebsiella pneumoniae infected in BALB/c mouse sepsis model assessed as reduction of bacterial load in spleen at 10 mg/kg, ip in the presence of meropenem observed for 2 days; assay type: functional, organism-based; settings: time 2.0 day
Escherichia coli [10] = assay: Antibacterial activity against NDM-1 producing Escherichia coli DH5alpha assessed as decrease in bacterial growth incubated for 16 to 20 hrs by CLSI based microdilution method; assay type: functional; settings: DH5[alpha], time 16-20 hrs
Klebsiella pneumoniae [11] = assay: Antibiotic adjuvant activity against meropenem-treated NDM-producing carbapenem resistant Klebsiella pneumoniae infected in BALB/c mouse sepsis model assessed as reduction of bacterial load in liver at 10 mg/kg, ip in the presence of meropenem observed for 2 days; assay type: functional, organism-based; settings: time 2.0 day
Pseudomonas aeruginosa = assay: Antibacterial activity against MBL producing Pseudomonas aeruginosa isolates assessed as inhibition of bacterial growth at 64 ug/ml incubated for 16 to 20 hrs by CLSI based microdilution method; assay type: functional, organism-based; settings: dose 64.0 µg/ml, time 16-20 hrs
Escherichia coli [12] = assay: Antibacterial activity against IMP-4 producing Escherichia coli DH5 alpha assessed as bacterial growth at 8 ug/ml incubated for 16 to 20 hrs by CLSI based microdilution method; assay type: functional; settings: dose 8 µg/ml; time 16-20 hrs
Klebsiella pneumoniae [13] = assay: Antibiotic adjuvant activity against meropenem-treated NDM-producing carbapenem resistant Klebsiella pneumoniae infected in BALB/c mouse sepsis model assessed as reduction of bacterial load in kidney at 10 mg/kg, ip in the presence of meropenem observed for 2 days; assay type: functional, organism-based; settings: time 2.0 day
[14] = Non competitive inhibition of VIM-2 (unknown origin) assessed as inhibition of substrate hydrolysis by measuring decrease in Vmax using nitrocefin as substrate preincubated with enzyme for 5 mins followed by substrate addition by Lineweaver-Burk plot analysis
[15] = Acute toxicity in BALB/c mouse assessed as survival rate at 10 to 50 mg/kg, ip administered as single dose measured for 72 hrs; assay type: organism-based; settings: in vivo, dose 10-50 mg/kg
[16] = Toxicity in sheep RBC assessed as induction of hemolysis measured after 1 hr; assay type: tissue-based, Ovis aries, Erythrocyte; settings: sheep red blood cells
Citrobacter freundii = assay: Antibacterial activity against MBL producing Citrobacter freundii isolates assessed as inhibition of bacterial growth at 64 ug/ml incubated for 16 to 20 hrs by CLSI based microdilution method; assay type: functional, organism-based; settings: dose 64.0 µg/ml, time 16-20 hrs
Enterobacter cloacae = assay: Antibacterial activity against MBL producing Enterobacter cloacae isolates assessed as inhibition of bacterial growth at 64 ug/ml incubated for 16 to 20 hrs by CLSI based microdilution method; assay type: functional, organism-based; settings: dose 64.0 µg/ml, time 16-20 hrs
[17] = Zinc chelation-dependent inhibition of NDM-1 (unknown origin) expressed in Escherichia coli DH5 alpha using meropenem as substrate preincubated with enzyme for 5 mins followed by substrate addition in the presence of zinc sulfate
[18] = Acute toxicity in BALB/c mouse assessed as change in urea level in serum at 50 mg/kg, ip administered as single dose measured after 24 hrs; assay type: organism-based; settings: in vivo
Escherichia coli [19] = assay: Antibiotic adjuvant activity against meropenem-treated IMP-4 producing Escherichia coli DH5 alpha assessed as bacterial growth at 8 ug/ml incubated for 16 to 20 hrs in the presence of meropenem by CLSI based microdilution method; assay type: functional; settings: dose 8 µg/ml; time 16-20 hrs
Escherichia coli [20] = assay: Antibiotic adjuvant activity against NDM-1 producing Escherichia coli DH5alpha assessed as potentiation of meropenem-induced antibacterial activity by measuring fold reduction in meropenem MIC at 16 ug/ml incubated for 16 to 20 hrs by checkerboard assay; assay type: functional, DH5[alpha]; settings: dose 16 µg/ml; time 16-20 hrs
[21] = Toxicity in sheep RBC assessed as induction of hemolysis at 1024 microg/ml measured after 1 hr relative to control; assay type: tissue-based, Ovis aries, Erythrocyte; settings: sheep red blood cells, at 1024 µg/mL, read-out: Activity
Klebsiella pneumoniae [22] = assay: Antibacterial activity against NDM-producing carbapenem resistant Klebsiella pneumoniae infected in BALB/c mouse sepsis model assessed as dilated and congested central vein with neutrophil cell infiltration within the red pulp of the spleen at 10 mg/kg, ip observed for 2 days by HE staining based assay; assay type: functional, organism-based; settings: time 2.0 day
GES1 = assay: Cytotoxicity against human GES1 cells assessed as live cells by measuring green fluorescence at 32 ug/ml measured after 24 hrs by calceinAM/propidium iodide staining based fluorescence microscopy; assay type: cell-based; settings: ges1, 24 h, dose 32 µg/ml
Klebsiella pneumoniae [23] = assay: Antibacterial activity against MBL producing Klebsiella pneumoniae isolates assessed as inhibition of bacterial growth at 64 ug/ml incubated for 16 to 20 hrs by CLSI based microdilution method; assay type: functional, organism-based; settings: dose 64.0 µg/ml, time 16-20 hrs
[24] = Acute toxicity in BALB/c mouse assessed as change in albumin level in serum at 50 mg/kg, ip administered as single dose measured after 24 hrs; assay type: organism-based; settings: in vivo
Escherichia coli [25] = assay: Synergistic antibacterial activity against NDM-1 producing Escherichia coli DH5alpha assessed as fractional inhibitory concentration index incubated for 16 to 20 hrs in presence of meropenem by checkerboard assay; assay type: functional, DH5[alpha]; settings: time 16-20 hrs
Escherichia coli [26] = assay: Antibacterial activity against NDM-1 producing Escherichia coli DH5 alpha assessed as bacterial growth at 8 ug/ml incubated for 16 to 20 hrs by CLSI based microdilution method; assay type: functional; settings: dose 8 µg/ml; time 16-20 hrs
Klebsiella pneumoniae [27] = assay: Antibiotic adjuvant activity against meropenem-treated NDM-producing carbapenem resistant Klebsiella pneumoniae infected in BALB/c mouse sepsis model assessed as survival rate at 10 mg/kg, ip in the presence of meropenem measured after 7 days; assay type: functional; settings: 168 h, time 7 day
Escherichia coli [28] = assay: Antibiotic adjuvant activity against VIM-1 producing Escherichia coli DH5alpha assessed as potentiation of meropenem-induced antibacterial activity incubated for 16 to 20 hrs by agar disc diffusion assay; assay type: functional, organism-based; settings: DH5[alpha], time 16-20 hrs
Klebsiella pneumoniae [29] = assay: Antibiotic adjuvant activity against meropenem-treated NDM-producing carbapenem resistant Klebsiella pneumoniae infected in BALB/c mouse sepsis model assessed as complete liver lobule structure with radially arranged hepatic cords and visible central veins at 10 mg/kg, ip in the presence of meropenem observed for 2 days by HE staining based assay; assay type: functional, organism-based; settings: time 2.0 day
Escherichia coli [30] = assay: Antibacterial activity against MBL producing Escherichia coli isolates assessed as inhibition of bacterial growth at 64 ug/ml incubated for 16 to 20 hrs by CLSI based microdilution method; assay type: functional, organism-based; settings: dose 64.0 µg/ml, time 16-20 hrs

Which results are given for `C[C@H](C(=O)O)N(Cc1cccc(C(=O)O)n1)Cc1cccc(C(=O)O)n1`?
Activity [1]: Non-Toxic; Activity (Escherichia coli [2]): Active; Activity (Klebsiella pneumoniae [3]): 83%; Activity [4]: Non-Toxic; IC50 [5]: 1.56 µM; Activity [6]: Non-Toxic; Activity [7]: Non-Toxic; Activity [8]: inactive; Activity (Klebsiella pneumoniae [9]): Active; MIC (Escherichia coli [10]): 128 µg/mL (≈ 356 µM); Activity (Klebsiella pneumoniae [11]): Active; Activity (Pseudomonas aeruginosa): inactive; Activity (Escherichia coli [12]): 95%; Activity (Klebsiella pneumoniae [13]): Active; Ki [14]: 6.16 µM; survival at 72 h [15]: 100%; HC50 at 1 h [16]: > 1020 µg/mL; Activity (Citrobacter freundii): inactive; Activity (Enterobacter cloacae): inactive; Activity [17]: inactive; Activity [18]: Non-Toxic; Activity (Escherichia coli [19]): <10%; fold change (FC) (Escherichia coli [20]): >1000; hemolysis at 1 h, 1024 microg/ml [21]: < 7%; Activity (Klebsiella pneumoniae [22]): inactive; Activity (GES1): Non-Toxic; Activity (Klebsiella pneumoniae [23]): inactive; Activity [24]: Non-Toxic; fractional inhibitory concentration index (FICI) (Escherichia coli [25]): 0.07; Activity (Escherichia coli [26]): 95%; survival at 10 mg/kg (Klebsiella pneumoniae [27]): 100%; Activity (Escherichia coli [28]): Active; Activity (Klebsiella pneumoniae [29]): Active; Activity (Escherichia coli [30]): inactive

Which results are given for `C[C@@H](C(=O)O)N(Cc1cccc(C(=O)O)n1)Cc1cccc(C(=O)O)n1`?
Activity [1]: Non-Toxic; Activity (Escherichia coli [2]): Active; Activity (Klebsiella pneumoniae [3]): 83%; Activity [4]: Non-Toxic; IC50 [5]: 1.54 µM; Activity [6]: Non-Toxic; Activity [7]: Non-Toxic; Activity [8]: inactive; Activity (Klebsiella pneumoniae [9]): Active; MIC (Escherichia coli [10]): 128 µg/mL (≈ 356 µM); Activity (Klebsiella pneumoniae [11]): Active; Activity (Pseudomonas aeruginosa): inactive; Activity (Escherichia coli [12]): 95%; Activity (Klebsiella pneumoniae [13]): Active; Ki [14]: 5.83 µM; survival at 72 h [15]: 100%; HC50 at 1 h [16]: > 1020 µg/mL; Activity (Citrobacter freundii): inactive; Activity (Enterobacter cloacae): inactive; Activity [17]: inactive; Activity [18]: Non-Toxic; Activity (Escherichia coli [19]): <10%; fold change (FC) (Escherichia coli [20]): >1000; hemolysis at 1 h, 1024 microg/ml [21]: < 7%; Activity (Klebsiella pneumoniae [22]): inactive; Activity (GES1): Non-Toxic; Activity (Klebsiella pneumoniae [23]): inactive; Activity [24]: Non-Toxic; fractional inhibitory concentration index (FICI) (Escherichia coli [25]): 0.07; Activity (Escherichia coli [26]): 95%; Activity (Escherichia coli [28]): Active; Activity (Klebsiella pneumoniae [29]): Active; Activity (Escherichia coli [30]): inactive
